Key:
Format in all cases: cell-based
Details in all cases: 24 hours of compound treatment, 50 nM and 500 nM
GSPT1 = target: T1, GSPT1 (Homo sapiens, UniProt P15170+Q96SW2); experiment: Western-blot assay, substrate protein degradation in hPBMCs: GSPT1
T1 construct: effects of the compounds of the present disclosure on the expression of target proteins in cells; endogenous in cells; host or cells: human PBMCs (hPBMCs)

IKZF2 = target: T2, IKZF2 (Homo sapiens, UniProt Q96SW2+Q9UKS7); experiment: Western-blot assay, substrate protein degradation in hPBMCs: IKZF2
T2 construct: effects of the compounds of the present disclosure on the expression of target proteins in cells; endogenous in cells; host or cells: human PBMCs (hPBMCs)

CK1α = target: T3, CK1α (Homo sapiens, UniProt P48729+Q96SW2); experiment: Western-blot assay, substrate protein degradation in hPBMCs: CK1α
T3 construct: effects of the compounds of the present disclosure on the expression of target proteins in cells; endogenous in cells; host or cells: human PBMCs (hPBMCs)
T3 sequence (P48729 whole entry): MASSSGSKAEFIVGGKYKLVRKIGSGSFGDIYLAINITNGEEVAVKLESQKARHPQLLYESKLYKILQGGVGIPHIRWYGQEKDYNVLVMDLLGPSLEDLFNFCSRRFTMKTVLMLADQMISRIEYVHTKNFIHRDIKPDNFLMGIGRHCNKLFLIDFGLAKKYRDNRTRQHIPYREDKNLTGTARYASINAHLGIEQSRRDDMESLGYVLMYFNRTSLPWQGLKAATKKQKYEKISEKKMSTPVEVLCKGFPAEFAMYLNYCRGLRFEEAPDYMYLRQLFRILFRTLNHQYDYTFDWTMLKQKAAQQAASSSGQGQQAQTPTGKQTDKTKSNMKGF
T3 sequence (Q96SW2 whole entry): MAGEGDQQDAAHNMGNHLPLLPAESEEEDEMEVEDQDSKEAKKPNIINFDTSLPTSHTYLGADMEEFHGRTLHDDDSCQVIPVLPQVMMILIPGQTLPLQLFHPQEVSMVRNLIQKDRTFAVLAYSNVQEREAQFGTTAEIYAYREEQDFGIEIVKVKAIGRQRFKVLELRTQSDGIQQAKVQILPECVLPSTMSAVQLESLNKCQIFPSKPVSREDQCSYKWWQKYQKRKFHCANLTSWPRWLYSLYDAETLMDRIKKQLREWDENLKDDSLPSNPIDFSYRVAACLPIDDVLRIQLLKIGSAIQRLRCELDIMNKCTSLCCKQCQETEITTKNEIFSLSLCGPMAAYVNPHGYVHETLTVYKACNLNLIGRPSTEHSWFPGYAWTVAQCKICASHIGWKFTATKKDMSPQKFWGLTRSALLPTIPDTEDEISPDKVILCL
T3 sequence (Q16531 whole entry partner): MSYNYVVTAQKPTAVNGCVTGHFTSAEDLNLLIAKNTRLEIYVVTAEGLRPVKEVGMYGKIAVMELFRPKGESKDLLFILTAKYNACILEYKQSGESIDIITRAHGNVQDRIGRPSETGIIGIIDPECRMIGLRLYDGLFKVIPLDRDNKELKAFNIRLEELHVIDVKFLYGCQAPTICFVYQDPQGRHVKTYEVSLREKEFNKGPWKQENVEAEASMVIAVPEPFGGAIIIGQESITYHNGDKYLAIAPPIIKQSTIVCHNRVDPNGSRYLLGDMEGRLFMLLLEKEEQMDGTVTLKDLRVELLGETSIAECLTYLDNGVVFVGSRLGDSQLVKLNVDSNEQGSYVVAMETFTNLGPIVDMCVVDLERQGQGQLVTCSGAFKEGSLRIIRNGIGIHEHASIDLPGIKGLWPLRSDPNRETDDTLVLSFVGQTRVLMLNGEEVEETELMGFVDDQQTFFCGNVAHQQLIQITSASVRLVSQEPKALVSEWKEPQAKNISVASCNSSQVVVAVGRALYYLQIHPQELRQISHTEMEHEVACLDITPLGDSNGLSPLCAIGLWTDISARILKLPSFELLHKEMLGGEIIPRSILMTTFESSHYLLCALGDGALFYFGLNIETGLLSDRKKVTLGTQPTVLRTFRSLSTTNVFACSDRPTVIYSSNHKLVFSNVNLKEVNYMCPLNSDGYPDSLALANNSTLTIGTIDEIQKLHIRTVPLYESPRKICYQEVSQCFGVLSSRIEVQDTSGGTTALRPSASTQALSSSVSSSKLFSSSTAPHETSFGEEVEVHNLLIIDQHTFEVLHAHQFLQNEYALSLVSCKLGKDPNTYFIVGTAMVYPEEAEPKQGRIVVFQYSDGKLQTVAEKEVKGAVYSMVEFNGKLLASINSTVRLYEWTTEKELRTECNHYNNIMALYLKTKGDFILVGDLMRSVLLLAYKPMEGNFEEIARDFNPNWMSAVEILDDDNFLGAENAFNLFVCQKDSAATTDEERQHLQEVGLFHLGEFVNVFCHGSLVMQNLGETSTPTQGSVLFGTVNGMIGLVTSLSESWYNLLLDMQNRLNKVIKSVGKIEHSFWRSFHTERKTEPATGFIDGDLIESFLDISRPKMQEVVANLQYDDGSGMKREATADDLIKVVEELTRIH

WEE1 = target: T4, WEE1 (Homo sapiens, UniProt P30291+Q96SW2); experiment: Western-blot assay, substrate protein degradation in hPBMCs: WEE1
T4 construct: effects of the compounds of the present disclosure on the expression of target proteins in cells; endogenous in cells; host or cells: human PBMCs (hPBMCs)
T4 sequence (P30291 whole entry): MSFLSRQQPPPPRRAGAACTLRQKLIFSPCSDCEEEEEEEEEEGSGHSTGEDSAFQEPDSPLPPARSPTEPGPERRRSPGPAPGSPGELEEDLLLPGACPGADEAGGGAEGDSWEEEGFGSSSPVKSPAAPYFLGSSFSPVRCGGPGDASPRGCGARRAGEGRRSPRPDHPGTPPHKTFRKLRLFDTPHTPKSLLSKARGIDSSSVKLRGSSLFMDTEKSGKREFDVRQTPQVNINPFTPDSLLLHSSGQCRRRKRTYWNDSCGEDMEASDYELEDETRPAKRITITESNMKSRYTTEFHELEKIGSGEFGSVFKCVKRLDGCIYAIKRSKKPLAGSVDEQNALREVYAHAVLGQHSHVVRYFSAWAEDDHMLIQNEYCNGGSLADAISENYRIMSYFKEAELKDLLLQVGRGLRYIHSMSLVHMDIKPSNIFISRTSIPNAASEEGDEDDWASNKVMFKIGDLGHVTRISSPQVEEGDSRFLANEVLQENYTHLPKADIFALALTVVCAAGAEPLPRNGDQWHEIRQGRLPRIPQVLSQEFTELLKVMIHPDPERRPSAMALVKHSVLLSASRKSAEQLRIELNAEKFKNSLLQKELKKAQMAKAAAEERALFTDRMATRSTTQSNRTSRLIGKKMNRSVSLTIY
T4 sequence (Q96SW2 whole entry): as the sequence (Q96SW2 whole entry) above
T4 sequence (Q16531 whole entry partner): as the sequence (Q16531 whole entry partner) above

IKZF1 = target: T5, IKZF1 (Homo sapiens, UniProt Q13422+Q96SW2); experiment: Western-blot assay, substrate protein degradation in hPBMCs: IKZF1
T5 construct: effects of the compounds of the present disclosure on the expression of target proteins in cells; endogenous in cells; host or cells: human PBMCs (hPBMCs)
T5 sequence (Q13422 whole entry): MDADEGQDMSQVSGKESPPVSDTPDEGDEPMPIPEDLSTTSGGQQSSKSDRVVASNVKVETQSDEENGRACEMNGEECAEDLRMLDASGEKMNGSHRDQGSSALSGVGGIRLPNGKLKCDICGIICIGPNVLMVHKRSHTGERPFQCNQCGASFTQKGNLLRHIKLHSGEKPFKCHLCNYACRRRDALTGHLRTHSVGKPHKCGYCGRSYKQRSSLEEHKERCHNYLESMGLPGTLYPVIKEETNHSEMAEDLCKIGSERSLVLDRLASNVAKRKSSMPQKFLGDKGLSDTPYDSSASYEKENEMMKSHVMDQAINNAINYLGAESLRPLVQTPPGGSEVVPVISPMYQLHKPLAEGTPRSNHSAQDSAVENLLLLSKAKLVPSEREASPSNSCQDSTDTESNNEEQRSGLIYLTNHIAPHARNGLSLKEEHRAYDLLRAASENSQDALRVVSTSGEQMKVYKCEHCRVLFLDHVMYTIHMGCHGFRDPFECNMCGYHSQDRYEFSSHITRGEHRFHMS
T5 sequence (Q96SW2 whole entry): as the sequence (Q96SW2 whole entry) above
T5 sequence (Q16531 whole entry partner): as the sequence (Q16531 whole entry partner) above

IKZF3 = target: T6, IKZF3 (Homo sapiens, UniProt Q96SW2+Q9UKT9); experiment: Western-blot assay, substrate protein degradation in hPBMCs: IKZF3
T6 construct: effects of the compounds of the present disclosure on the expression of target proteins in cells; endogenous in cells; host or cells: human PBMCs (hPBMCs)
T6 sequence (Q9UKT9 whole entry): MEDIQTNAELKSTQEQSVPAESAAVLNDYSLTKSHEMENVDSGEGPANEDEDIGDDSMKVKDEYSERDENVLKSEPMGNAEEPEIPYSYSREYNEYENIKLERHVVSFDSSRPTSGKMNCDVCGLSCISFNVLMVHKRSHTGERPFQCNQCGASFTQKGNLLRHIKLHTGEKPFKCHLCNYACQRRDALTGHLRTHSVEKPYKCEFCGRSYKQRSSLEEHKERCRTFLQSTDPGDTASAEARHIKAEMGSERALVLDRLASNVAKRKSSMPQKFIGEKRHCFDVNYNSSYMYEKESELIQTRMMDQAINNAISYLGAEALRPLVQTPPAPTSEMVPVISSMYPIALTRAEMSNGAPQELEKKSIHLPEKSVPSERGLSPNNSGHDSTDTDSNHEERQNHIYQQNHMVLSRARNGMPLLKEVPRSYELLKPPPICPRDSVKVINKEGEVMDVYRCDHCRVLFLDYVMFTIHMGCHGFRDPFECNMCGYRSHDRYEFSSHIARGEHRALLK
T6 sequence (Q96SW2 whole entry): as the sequence (Q96SW2 whole entry) above
T6 sequence (Q16531 whole entry partner): as the sequence (Q16531 whole entry partner) above

T1 sequence (P15170 whole entry): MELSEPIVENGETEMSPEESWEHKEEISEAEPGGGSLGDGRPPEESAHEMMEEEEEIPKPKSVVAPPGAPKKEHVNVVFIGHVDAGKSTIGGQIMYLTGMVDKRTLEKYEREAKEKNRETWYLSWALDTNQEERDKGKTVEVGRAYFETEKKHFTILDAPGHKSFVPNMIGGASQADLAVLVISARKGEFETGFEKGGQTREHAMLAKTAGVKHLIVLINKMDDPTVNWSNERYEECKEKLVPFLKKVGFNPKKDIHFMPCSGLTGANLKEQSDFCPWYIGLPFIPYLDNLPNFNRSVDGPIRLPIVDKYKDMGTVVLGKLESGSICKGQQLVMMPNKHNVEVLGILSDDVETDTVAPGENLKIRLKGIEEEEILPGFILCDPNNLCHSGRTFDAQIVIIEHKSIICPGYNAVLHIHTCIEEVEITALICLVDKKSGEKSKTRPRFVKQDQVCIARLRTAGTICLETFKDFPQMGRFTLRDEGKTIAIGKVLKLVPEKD
T1 sequence (Q96SW2 whole entry): as the sequence (Q96SW2 whole entry) above
T1 sequence (Q16531 whole entry partner): as the sequence (Q16531 whole entry partner) above

Compound | substrate protein remaining % GSPT1 (GSPT1) | substrate protein remaining % IKZF2 (IKZF2) | substrate protein remaining % CK1α (CK1α) | substrate protein remaining % WEE1 (WEE1) | substrate protein remaining % IKZF1 (IKZF1) | substrate protein remaining % IKZF3 (IKZF3)
O=C1CCN(N2C(=O)c3ccc(CN4CC=C(c5ccoc5)CC4)cc3C2=O)C(=O)N1 [GT-07442, 2-(2,4-dioxotetrahydropyrimidin-1(2H)-yl)-5-((4-(furan-3-yl)-3,6-dihydropyridin-1(2H)-yl)methyl)isoindoline-1,3-dione] | A (0% ≤ substrate protein remaining % ≤ 80%) | B (80%< substrate protein remaining %≤ 100%) | B (80%< substrate protein remaining %≤ 100%) | A (0% ≤ substrate protein remaining % ≤ 80%) | B (80%< substrate protein remaining %≤ 100%) | A (0% ≤ substrate protein remaining % ≤ 80%)
O=C1CCN(N2C(=O)c3ccc(CN4CC=C(c5cncc(Cl)c5)CC4)cc3C2=O)C(=O)N1 [GT-07491, 5-((5-chloro-3',6'-dihydro-[3,4'-bipyridin]-1'(2'H)-yl)methyl)-2-(2,4-dioxotetrahydropyrimidin-1(2H)-yl)isoindoline-1,3-dione] | A (0% ≤ substrate protein remaining % ≤ 80%) | B (80%< substrate protein remaining %≤ 100%) | B (80%< substrate protein remaining %≤ 100%) | A (0% ≤ substrate protein remaining % ≤ 80%) | B (80%< substrate protein remaining %≤ 100%) | B (80%< substrate protein remaining %≤ 100%)
O=C1CCN(N2C(=O)c3ccc(CN4CC=C(c5ncccc5F)CC4)cc3C2=O)C(=O)N1 [GT-07492, 2-(2,4-dioxotetrahydropyrimidin-1(2H)-yl)-5-((3-fluoro-3',6'-dihydro-[2,4'-bipyridin]-1'(2'H)-yl)methyl)isoindoline-1,3-dione] | B (80%< substrate protein remaining %≤ 100%) | B (80%< substrate protein remaining %≤ 100%) | A (0% ≤ substrate protein remaining % ≤ 80%) | B (80%< substrate protein remaining %≤ 100%) | B (80%< substrate protein remaining %≤ 100%) | B (80%< substrate protein remaining %≤ 100%)
O=C1CCN(N2C(=O)c3ccc(CN4CCC(c5ccnc(F)c5F)CC4)cc3C2=O)C(=O)N1 [GT-07493, 5-((4-(2,3-difluoropyridin-4-yl)piperidin-1-yl)methyl)-2-(2,4-dioxotetrahydropyrimidin-1(2H)-yl)isoindoline-1,3-dione] | B (80%< substrate protein remaining %≤ 100%) | B (80%< substrate protein remaining %≤ 100%) | A (0% ≤ substrate protein remaining % ≤ 80%) | B (80%< substrate protein remaining %≤ 100%) | B (80%< substrate protein remaining %≤ 100%) | A (0% ≤ substrate protein remaining % ≤ 80%)
O=C1CCN(N2C(=O)c3ccc(CN4CC=C(c5ccnc(F)c5F)CC4)cc3C2=O)C(=O)N1 [GT-07494, 5-((2',3'-difluoro-3,6-dihydro-[4,4'-bipyridin]-1(2H)-yl)methyl)-2-(2,4-dioxotetrahydropyrimidin-1(2H)-yl)isoindoline-1,3-dione] | B (80%< substrate protein remaining %≤ 100%) | B (80%< substrate protein remaining %≤ 100%) | A (0% ≤ substrate protein remaining % ≤ 80%) | A (0% ≤ substrate protein remaining % ≤ 80%) | B (80%< substrate protein remaining %≤ 100%) | B (80%< substrate protein remaining %≤ 100%)
O=C1CCN(N2Cc3cc(CN4CCC(c5ccon5)CC4)ccc3C2=O)C(=O)N1 [GT-07495, 1-(5-((4-(isoxazol-3-yl)piperidin-1-yl)methyl)-1-oxoisoindolin-2-yl)dihydropyrimidine-2,4(1H,3H)-dione] | A (0% ≤ substrate protein remaining % ≤ 80%) | B (80%< substrate protein remaining %≤ 100%) | A (0% ≤ substrate protein remaining % ≤ 80%) | B (80%< substrate protein remaining %≤ 100%) | B (80%< substrate protein remaining %≤ 100%) | B (80%< substrate protein remaining %≤ 100%)
O=C1CCN(N2Cc3cc(CN4CCN(c5noc6cc(F)ccc56)CC4)ccc3C2=O)C(=O)N1 [GT-07496, 1-(5-((4-(6-fluorobenzo[d]isoxazol-3-yl)piperazin-1-yl)methyl)-1-oxoisoindolin-2-yl)dihydropyrimidine-2,4(1H,3H)-dione] | A (0% ≤ substrate protein remaining % ≤ 80%) | B (80%< substrate protein remaining %≤ 100%) | A (0% ≤ substrate protein remaining % ≤ 80%) | B (80%< substrate protein remaining %≤ 100%) | B (80%< substrate protein remaining %≤ 100%) | B (80%< substrate protein remaining %≤ 100%)
O=C1CCN(N2Cc3cc(CN4CCN(c5noc6ccncc56)CC4)ccc3C2=O)C(=O)N1 [GT-07497, 1-(5-((4-(isoxazolo[4,5-c]pyridin-3-yl)piperazin-1-yl)methyl)-1-oxoisoindolin-2-yl)dihydropyrimidine-2,4(1H,3H)-dione] | A (0% ≤ substrate protein remaining % ≤ 80%) | A (0% ≤ substrate protein remaining % ≤ 80%) | A (0% ≤ substrate protein remaining % ≤ 80%) | A (0% ≤ substrate protein remaining % ≤ 80%) | A (0% ≤ substrate protein remaining % ≤ 80%) | B (80%< substrate protein remaining %≤ 100%)
O=C1CCN(N2Cc3cc(CN4CCN(c5nsc6cc(F)ccc56)CC4)ccc3C2=O)C(=O)N1 [GT-07500, 1-(5-((4-(6-fluorobenzo[d]isothiazol-3-yl)piperazin-1-yl)methyl)-1-oxoisoindolin-2-yl)dihydropyrimidine-2,4(1H,3H)-dione] | A (0% ≤ substrate protein remaining % ≤ 80%) | B (80%< substrate protein remaining %≤ 100%) | A (0% ≤ substrate protein remaining % ≤ 80%) | A (0% ≤ substrate protein remaining % ≤ 80%) | A (0% ≤ substrate protein remaining % ≤ 80%) | B (80%< substrate protein remaining %≤ 100%)
O=C1CCN(N2Cc3cc(CN4CCN(c5c[nH]c6ncccc56)CC4)ccc3C2=O)C(=O)N1 [GT-07502, 1-(5-((4-(1H-pyrrolo[2,3-b]pyridin-3-yl)piperazin-1-yl)methyl)-1-oxoisoindolin-2-yl)dihydropyrimidine-2,4(1H,3H)-dione] | A (0% ≤ substrate protein remaining % ≤ 80%) | B (80%< substrate protein remaining %≤ 100%) | A (0% ≤ substrate protein remaining % ≤ 80%) | A (0% ≤ substrate protein remaining % ≤ 80%) | A (0% ≤ substrate protein remaining % ≤ 80%) | B (80%< substrate protein remaining %≤ 100%)
O=C1CCN(N2Cc3cc(CN4CCC(n5cnc6cc(F)ccc65)CC4)ccc3C2=O)C(=O)N1 [GT-07503, 1-(5-((4-(5-fluoro-1H-benzo[d]imidazol-1-yl)piperidin-1-yl)methyl)-1-oxoisoindolin-2-yl)dihydropyrimidine-2,4(1H,3H)-dione] | A (0% ≤ substrate protein remaining % ≤ 80%) | B (80%< substrate protein remaining %≤ 100%) | A (0% ≤ substrate protein remaining % ≤ 80%) | A (0% ≤ substrate protein remaining % ≤ 80%) | A (0% ≤ substrate protein remaining % ≤ 80%) | B (80%< substrate protein remaining %≤ 100%)
